Measurements taken from ChEMBL document CHEMBL4190187, “Discovery of pyrazolopyrimidine derivatives as novel inhibitors of ataxia telangiectasia and rad3 related protein (ATR)” (Bioorg Med Chem Lett, 2017).

How the values were obtained:
[1] = test system: Serine/threonine-protein kinase Chk2 (Homo sapiens), O96017 [R145W]; experiment: Inhibition of recombinant human CHK2 R145W mutant (5 to end residues) at 1 uM using KKKVSRSGLYRSPSMPENLNRPR as substrate after 40 mins in presence of [gamma-33P]ATP by scintillation counting method
Serine/threonine-protein kinase Chk2 (Homo sapiens), O96017 [R145W], sequence (O96017 whole entry R145W): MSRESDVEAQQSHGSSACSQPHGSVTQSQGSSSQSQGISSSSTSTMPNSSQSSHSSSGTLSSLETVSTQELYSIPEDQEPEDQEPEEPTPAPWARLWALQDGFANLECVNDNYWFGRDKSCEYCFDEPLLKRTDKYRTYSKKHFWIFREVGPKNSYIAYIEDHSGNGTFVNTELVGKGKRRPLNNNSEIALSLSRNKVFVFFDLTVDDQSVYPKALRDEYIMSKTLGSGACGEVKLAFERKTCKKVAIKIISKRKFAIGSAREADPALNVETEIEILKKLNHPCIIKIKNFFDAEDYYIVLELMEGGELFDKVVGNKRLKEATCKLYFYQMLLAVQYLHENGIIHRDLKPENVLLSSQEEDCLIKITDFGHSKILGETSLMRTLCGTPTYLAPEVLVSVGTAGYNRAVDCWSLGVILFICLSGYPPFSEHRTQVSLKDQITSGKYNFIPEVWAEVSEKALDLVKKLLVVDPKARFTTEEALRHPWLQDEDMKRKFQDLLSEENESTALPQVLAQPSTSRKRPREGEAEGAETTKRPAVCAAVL

[2] = biological target: Tyrosine-protein kinase Tec (Homo sapiens) (UniProt P42680); experiment: Inhibition of recombinant activated human Tec (174 to end residues) at 1 uM using EFPIYDFLPAKKK as substrate after 40 mins in presence of [gamma-33P]ATP by scintillation counting method
Mus musculus = experiment: Clearance in mouse at 2 mg/kg, iv or 10 mg/kg, po; assay type: ADME, organism-based; conditions: in vivo
[3] = biological target: Tyrosine-protein kinase Fer (Homo sapiens) (UniProt P16591); experiment: Inhibition of recombinant human FER (541 to end residues) at 1 uM using KKKSPGEYVNIEFG as substrate after 40 mins in presence of [gamma-33P]ATP by scintillation counting method
[4] = biological target: Mitogen-activated protein kinase kinase kinase kinase 4 (Homo sapiens) (UniProt O95819); experiment: Inhibition of recombinant human MAP4K4 (1 to 328 residues) at 1 uM using RLGRDKYKTLRQIRQ as substrate after 40 mins in presence of [gamma-33P]ATP by scintillation counting method
[5] = Metabolic stability in human liver microsomes assessed as compound remaining at 1 uM in presence of NADPH as cofactor measured after 30 mins by LC-MS/MS method; assay type: ADME, microsome; conditions: read-out: Stability
[6] = biological target: Ribosomal protein S6 kinase alpha-5 (Homo sapiens) (UniProt O75582); experiment: Inhibition of recombinant human MSK1 (2 to end residues) at 1 uM using GRPRTSSFAEGKK as substrate after 40 mins in presence of [gamma-33P]ATP by scintillation counting method
[7] = biological target: Glycogen synthase kinase-3 alpha (Homo sapiens) (UniProt P49840); experiment: Inhibition of recombinant human GSK3alpha (2 to end residues) at 1 uM using YRRAAVPPSPSLSRHSSPHQS(p)EDEEE (phospho GS2 peptide) as substrate after 40 mins in presence of [gamma-33P]ATP by scintillation counting method
[8] = biological target: Serine/threonine-protein kinase A-Raf (Homo sapiens) (UniProt P10398); experiment: Inhibition of recombinant human A-Raf (273 to end residues) at 1 uM using myelin basic protein as substrate after 40 mins in presence of [gamma-33P]ATP by scintillation counting method
Serine/threonine-protein kinase A-Raf (Homo sapiens), sequence (P10398 whole entry): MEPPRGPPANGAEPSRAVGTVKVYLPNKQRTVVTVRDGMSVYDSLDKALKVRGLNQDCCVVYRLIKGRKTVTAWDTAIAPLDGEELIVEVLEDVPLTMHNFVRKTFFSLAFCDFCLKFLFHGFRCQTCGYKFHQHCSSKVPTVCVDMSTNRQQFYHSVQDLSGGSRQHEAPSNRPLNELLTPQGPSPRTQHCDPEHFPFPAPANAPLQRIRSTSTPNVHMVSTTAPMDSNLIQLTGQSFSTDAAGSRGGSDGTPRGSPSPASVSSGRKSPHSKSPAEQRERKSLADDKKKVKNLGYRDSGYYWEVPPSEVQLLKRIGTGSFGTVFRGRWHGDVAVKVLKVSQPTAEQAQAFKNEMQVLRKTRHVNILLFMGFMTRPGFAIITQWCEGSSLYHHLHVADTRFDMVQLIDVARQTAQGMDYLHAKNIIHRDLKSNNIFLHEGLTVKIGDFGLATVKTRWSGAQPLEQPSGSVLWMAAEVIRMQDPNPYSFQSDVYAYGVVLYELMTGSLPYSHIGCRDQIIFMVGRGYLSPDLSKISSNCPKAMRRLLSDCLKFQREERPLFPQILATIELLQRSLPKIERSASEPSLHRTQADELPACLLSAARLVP

[9] = test system: RAC-gamma serine/threonine-protein kinase (Homo sapiens), Q9Y243 [S472D]; experiment: Inhibition of recombinant human PKBgamma S472D mutant (117 to end residues) at 1 uM using GRPRTSSFAEGKK as substrate after 40 mins in presence of [gamma-33P]ATP by scintillation counting method
[10] = biological target: Receptor tyrosine-protein kinase erbB-4 (Homo sapiens) (UniProt Q15303); experiment: Inhibition of recombinant human ErbB4 (706 to 991 residues) at 1 uM using poly(Glu,Tyr) 4:1 as substrate after 40 mins in presence of [gamma-33P]ATP by scintillation counting method
[11] = test system: Proto-oncogene tyrosine-protein kinase Src (Homo sapiens), P12931 [T341M]; experiment: Inhibition of recombinant full-length human Src T341M mutant at 1 uM using GGEEEEYFELVKKKK as substrate after 40 mins in presence of [gamma-33P]ATP by scintillation counting method
[12] = biological target: Serine/threonine-protein kinase 25 (Homo sapiens) (UniProt O00506); experiment: Inhibition of recombinant human STK25 (1 to 308 residues) at 1 uM using RLGRDKYKTLRQIRQ as substrate after 40 mins in presence of [gamma-33P]ATP by scintillation counting method
[13] = biological target: Serine/threonine-protein kinase 32C (Homo sapiens) (UniProt Q86UX6); experiment: Inhibition of recombinant full-length human STK32C at 1 uM using casein as substrate after 120 mins in presence of [gamma-33P]ATP by scintillation counting method
Serine/threonine-protein kinase 32C (Homo sapiens), sequence (Q86UX6 whole entry, the tested form may be a part): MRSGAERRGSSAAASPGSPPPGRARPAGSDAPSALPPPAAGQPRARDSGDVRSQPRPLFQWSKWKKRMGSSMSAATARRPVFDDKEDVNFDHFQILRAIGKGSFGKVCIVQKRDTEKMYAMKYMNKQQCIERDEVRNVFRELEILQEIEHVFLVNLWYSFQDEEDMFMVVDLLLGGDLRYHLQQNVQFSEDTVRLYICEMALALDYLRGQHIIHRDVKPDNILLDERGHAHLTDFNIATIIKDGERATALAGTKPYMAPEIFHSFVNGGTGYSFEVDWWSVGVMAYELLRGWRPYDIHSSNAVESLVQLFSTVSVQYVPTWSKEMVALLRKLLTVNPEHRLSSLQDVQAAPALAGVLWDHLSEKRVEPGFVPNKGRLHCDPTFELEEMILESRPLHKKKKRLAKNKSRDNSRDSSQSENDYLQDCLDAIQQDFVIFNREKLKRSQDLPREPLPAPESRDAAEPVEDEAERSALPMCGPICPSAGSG

[14] = biological target: TRAF2 and NCK-interacting protein kinase (Homo sapiens) (UniProt Q9UKE5); experiment: Inhibition of recombinant human TNIK (1 to 367 residues) at 1 uM using RLGRDKYKTLRQIRQ as substrate after 40 mins in presence of [gamma-33P]ATP by scintillation counting method
[15] = biological target: Serine/threonine-protein kinase 35 (Homo sapiens) (UniProt Q8TDR2); experiment: Inhibition of recombinant full-length human CLIK1 at 1 uM using RSRSRSRSRSRSRSR as substrate after 40 mins in presence of [gamma-33P]ATP by scintillation counting method
Serine/threonine-protein kinase 35 (Homo sapiens), sequence (Q8TDR2 whole entry, the tested form may be a part): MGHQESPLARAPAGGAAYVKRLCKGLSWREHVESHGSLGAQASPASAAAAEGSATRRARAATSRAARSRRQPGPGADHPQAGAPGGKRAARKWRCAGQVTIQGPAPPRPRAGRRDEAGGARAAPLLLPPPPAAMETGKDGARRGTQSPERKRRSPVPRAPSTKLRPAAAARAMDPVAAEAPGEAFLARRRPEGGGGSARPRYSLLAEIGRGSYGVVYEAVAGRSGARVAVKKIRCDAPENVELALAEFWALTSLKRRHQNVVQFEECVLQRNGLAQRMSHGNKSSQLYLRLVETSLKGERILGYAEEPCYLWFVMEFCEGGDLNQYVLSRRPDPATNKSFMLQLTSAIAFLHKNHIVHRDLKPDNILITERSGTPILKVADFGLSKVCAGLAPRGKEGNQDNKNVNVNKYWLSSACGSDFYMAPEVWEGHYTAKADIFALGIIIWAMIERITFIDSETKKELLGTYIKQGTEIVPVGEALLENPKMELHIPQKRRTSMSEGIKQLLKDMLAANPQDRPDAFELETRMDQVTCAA

[16] = biological target: Fibroblast growth factor receptor 2 (Homo sapiens) (UniProt P21802); experiment: Inhibition of recombinant human FGFR2 (456 to 770 residues) at 1 uM using poly(Glu,Tyr) 4:1 as substrate after 40 mins in presence of [gamma-33P]ATP by scintillation counting method
Fibroblast growth factor receptor 2 (Homo sapiens), sequence (P21802 22-821 limits assumed): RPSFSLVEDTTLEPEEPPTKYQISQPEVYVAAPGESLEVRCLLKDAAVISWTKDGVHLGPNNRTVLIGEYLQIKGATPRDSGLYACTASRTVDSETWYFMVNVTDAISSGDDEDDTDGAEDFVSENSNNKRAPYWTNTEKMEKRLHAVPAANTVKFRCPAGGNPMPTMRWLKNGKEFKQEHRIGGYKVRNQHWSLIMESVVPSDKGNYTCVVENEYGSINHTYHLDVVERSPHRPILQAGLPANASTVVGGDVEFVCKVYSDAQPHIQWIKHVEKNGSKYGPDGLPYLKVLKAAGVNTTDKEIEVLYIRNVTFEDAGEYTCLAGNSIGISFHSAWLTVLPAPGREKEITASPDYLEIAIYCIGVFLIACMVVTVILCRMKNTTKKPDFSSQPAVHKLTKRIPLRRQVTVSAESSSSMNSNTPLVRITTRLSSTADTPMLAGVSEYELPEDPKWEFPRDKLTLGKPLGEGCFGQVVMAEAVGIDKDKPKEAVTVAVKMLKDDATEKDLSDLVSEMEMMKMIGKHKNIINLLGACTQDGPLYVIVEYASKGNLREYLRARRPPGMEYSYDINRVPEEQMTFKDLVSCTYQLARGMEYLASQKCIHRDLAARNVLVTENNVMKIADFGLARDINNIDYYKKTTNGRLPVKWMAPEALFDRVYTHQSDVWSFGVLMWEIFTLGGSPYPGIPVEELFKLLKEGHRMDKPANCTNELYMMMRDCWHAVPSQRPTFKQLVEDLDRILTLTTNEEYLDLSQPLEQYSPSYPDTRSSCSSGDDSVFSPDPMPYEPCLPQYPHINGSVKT

[17] = biological target: Ephrin type-B receptor 1 (Homo sapiens) (UniProt P54762); experiment: Inhibition of recombinant human EPHB1 (564 to end residues) at 1 uM using KVEKIGEGTYGVVYK as substrate after 40 mins in presence of [gamma-33P]ATP by scintillation counting method
Ephrin type-B receptor 1 (Homo sapiens), sequence (P54762 whole entry): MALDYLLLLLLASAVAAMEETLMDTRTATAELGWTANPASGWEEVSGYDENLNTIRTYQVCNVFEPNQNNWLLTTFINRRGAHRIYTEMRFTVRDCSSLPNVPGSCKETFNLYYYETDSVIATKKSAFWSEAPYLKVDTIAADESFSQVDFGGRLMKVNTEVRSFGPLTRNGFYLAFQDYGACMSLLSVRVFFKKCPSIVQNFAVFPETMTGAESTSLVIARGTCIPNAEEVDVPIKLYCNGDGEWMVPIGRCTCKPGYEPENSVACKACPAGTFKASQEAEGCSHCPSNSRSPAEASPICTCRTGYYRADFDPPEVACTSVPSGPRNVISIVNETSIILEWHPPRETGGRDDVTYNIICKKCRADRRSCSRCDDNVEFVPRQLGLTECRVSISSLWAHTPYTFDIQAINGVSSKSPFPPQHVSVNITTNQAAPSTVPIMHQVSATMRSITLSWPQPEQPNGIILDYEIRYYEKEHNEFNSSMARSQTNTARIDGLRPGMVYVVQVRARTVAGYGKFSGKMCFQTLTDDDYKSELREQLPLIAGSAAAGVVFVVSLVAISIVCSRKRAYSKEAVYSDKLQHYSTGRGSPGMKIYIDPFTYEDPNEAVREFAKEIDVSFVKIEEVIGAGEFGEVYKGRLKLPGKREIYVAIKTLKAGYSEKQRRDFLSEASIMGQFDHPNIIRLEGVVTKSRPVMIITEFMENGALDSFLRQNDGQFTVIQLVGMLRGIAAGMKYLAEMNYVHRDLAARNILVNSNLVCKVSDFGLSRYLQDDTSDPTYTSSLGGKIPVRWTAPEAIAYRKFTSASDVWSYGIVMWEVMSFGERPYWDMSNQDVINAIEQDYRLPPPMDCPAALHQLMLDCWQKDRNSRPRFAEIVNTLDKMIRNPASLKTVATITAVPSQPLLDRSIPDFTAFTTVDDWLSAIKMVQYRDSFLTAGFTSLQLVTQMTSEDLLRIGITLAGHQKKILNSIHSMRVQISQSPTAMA

[18] = biological target: Tyrosine-protein kinase TXK (Homo sapiens) (UniProt P42681); experiment: Inhibition of recombinant human Txk (256 to end residues) at 1 uM using GEEPLYWSFPAKKK as substrate after 40 mins in presence of [gamma-33P]ATP by scintillation counting method
[19] = biological target: Inhibitor of nuclear factor kappa-B kinase subunit alpha (Homo sapiens) (UniProt O15111); experiment: Inhibition of recombinant full-length human IKKalpha at 1 uM using peptide as substrate after 40 mins in presence of [gamma-33P]ATP by scintillation counting method
[20] = biological target: Dual specificity tyrosine-phosphorylation-regulated kinase 2 (Homo sapiens) (UniProt Q92630); experiment: Inhibition of recombinant full-length human DYRK2 at 1 uM using casein as substrate after 40 mins in presence of [gamma-33P]ATP by scintillation counting method
Dual specificity tyrosine-phosphorylation-regulated kinase 2 (Homo sapiens), sequence (Q92630 whole entry): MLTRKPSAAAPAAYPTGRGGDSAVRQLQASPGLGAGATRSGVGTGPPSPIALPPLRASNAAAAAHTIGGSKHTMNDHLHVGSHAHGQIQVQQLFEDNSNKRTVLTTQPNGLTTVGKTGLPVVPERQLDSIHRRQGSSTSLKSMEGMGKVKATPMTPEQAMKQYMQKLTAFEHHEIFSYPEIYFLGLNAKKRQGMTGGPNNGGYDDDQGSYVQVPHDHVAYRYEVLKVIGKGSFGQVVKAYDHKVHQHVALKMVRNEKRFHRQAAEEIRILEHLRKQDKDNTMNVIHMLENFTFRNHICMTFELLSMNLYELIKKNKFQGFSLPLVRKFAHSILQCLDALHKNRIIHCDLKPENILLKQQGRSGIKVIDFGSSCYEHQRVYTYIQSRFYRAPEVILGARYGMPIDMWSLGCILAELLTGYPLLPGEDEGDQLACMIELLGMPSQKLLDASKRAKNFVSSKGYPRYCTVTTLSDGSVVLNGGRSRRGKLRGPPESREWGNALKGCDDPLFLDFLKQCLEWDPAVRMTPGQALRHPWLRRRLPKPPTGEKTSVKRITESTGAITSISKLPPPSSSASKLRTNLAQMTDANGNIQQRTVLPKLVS

[21] = test system: Epidermal growth factor receptor (Homo sapiens), P00533 [L858R]; experiment: Inhibition of recombinant human EGFR L858R mutant (696 to end residues) at 1 uM using poly(Glu,Tyr) 4:1 as substrate after 40 mins in presence of [gamma-33P]ATP by scintillation counting method
[22] = biological target: LIM domain kinase 1 (Homo sapiens) (UniProt P53667); experiment: Inhibition of recombinant human LIMK1 (285 to 638 residues) at 1 uM using cofilin as substrate after 40 mins in presence of [gamma-33P]ATP by scintillation counting method
[23] = biological target: Serine/threonine-protein kinase 3 (Homo sapiens) (UniProt Q13188); experiment: Inhibition of recombinant human MST2 (2 to end residues) at 1 uM using myelin basic protein as substrate after 40 mins in presence of [gamma-33P]ATP by scintillation counting method
Serine/threonine-protein kinase 3 (Homo sapiens), sequence (Q13188 whole entry): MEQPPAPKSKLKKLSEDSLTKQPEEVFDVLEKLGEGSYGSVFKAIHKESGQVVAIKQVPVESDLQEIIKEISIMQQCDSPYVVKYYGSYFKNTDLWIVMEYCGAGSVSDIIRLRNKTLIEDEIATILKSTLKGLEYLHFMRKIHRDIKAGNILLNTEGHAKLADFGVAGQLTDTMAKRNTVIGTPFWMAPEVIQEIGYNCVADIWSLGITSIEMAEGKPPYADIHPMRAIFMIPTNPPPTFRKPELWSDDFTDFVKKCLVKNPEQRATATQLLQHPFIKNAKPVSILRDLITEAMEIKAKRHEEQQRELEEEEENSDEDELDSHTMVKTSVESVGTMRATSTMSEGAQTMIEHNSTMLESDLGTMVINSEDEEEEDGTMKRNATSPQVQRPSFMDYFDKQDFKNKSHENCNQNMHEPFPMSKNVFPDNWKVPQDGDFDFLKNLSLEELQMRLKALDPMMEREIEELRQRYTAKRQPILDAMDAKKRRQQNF

CS(=O)(=O)c1ccc(-n2nc(-c3cnc4[nH]ccc4c3)c3c(N)ncnc32)cc1
inhibition [1]: 4%
inhibition [2]: 55%
CL (Mus musculus): 22.2 mL/min/kg
inhibition [3]: 1%
inhibition [4]: -8%
remaining at 0.5 h, 1 µM [5]: 83%
inhibition [6]: 0%
inhibition [7]: 17%
inhibition [8]: -10%
inhibition [9]: -7%
inhibition [10]: 4%
inhibition [11]: 7%
inhibition [12]: 45%
inhibition [13]: 5%
inhibition [14]: -9%
inhibition [15]: 3%
inhibition [16]: 17%
inhibition [17]: 22%
inhibition [18]: 78%
inhibition [19]: -5%
inhibition [20]: -10%
inhibition [21]: 5%
inhibition [22]: 24%
inhibition [23]: 8%
